For assay [1], the target named is T1, BaF3 (EGFR/D770insSVD) (Homo sapiens, UniProt P00533, cells depend on it, form not given).
T1 construct: other: A763insFQEA, V769ins
The assay can be described thus: Test 13: EGFR exon 20 inserted D770insSVD cell proliferation test. To be noted: A763insFQEA, V769insASV, D770insSVD (tests 13-15), in words. It counts as cell-based. The method in brief:
(§1)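 BaF3 cells expressing EGFR D770insSVD, 3,000 cells/well, seeded overnight at 37° C, 5% CO2, then exposed to serially diluted compound for 72 h. Viable cells read by CellTiter-Glo luminescence; values from curve fitting.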

Assay [2] addresses T2, BaF3 (EGFR/D770insSVD) (Homo sapiens, UniProt P00533, DUP768-770, cells depend on it).
T2 construct: Test 13 IC50 (nM); other: BaF3 (EGFR/D770insSVD), 72 hours, Cell Titer-Glo
The assay is described as above. The format is cell-based. To be noted: BaF3 (EGFR/D770insSVD), 72 hours, Cell Titer-Glo; read-out: Test 13 IC50. Put shortly: as §1

For assay [3], the target named is BaF3 (EGFR/A763insFQEA) (Homo sapiens, UniProt P00533, INS763FQEA, cells depend on it). Kind of assay: Test 14: EGFR exon 20 inserted A763insFQEA cell proliferation test. It counts as cell-based. The following applies: 72 hours, Cell Titer-Glo, read-out: Test 14 IC50. Put shortly: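 BaF3 cells dependent on EGFR A763insFQEA, plated at 3,000 cells/well and cultured overnight at 37 °C, 5% CO2, then exposed to compound serial dilutions in DMSO for 72 h. Viable cells quantified by CellTiter-Glo luminescence; values from curve fitting.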
In general terms: In ATP-based viability assays light output follows the ATP content of the culture.

Assay [4] concerns the target BaF3 (EGFR/V769insASV) (Homo sapiens, UniProt P00533, DUP767-769, cells depend on it). The assay can be described thus: Test 15: EGFR exon 20 inserted V769insASV cell proliferation test. It counts as cell-based. To be noted: 72 hours, Cell Titer-Glo, read-out: Test 15 IC50. The method in brief:
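BaF3 cells expressing EGFR V769insASV (3000 cells/well) plated overnight, then exposed to DMSO-diluted compound series for 72 h at 37 °C, 5% CO2. Viability by CellTiter-Glo luminescence; values from curve fitting.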

In assay [5] the target is T3, BaF3 (EGFR/N771insH) (Homo sapiens, UniProt P00533, cells depend on it, form not given).
T3 construct: other: N771insH, D770insNPG
Kind of assay: Test 16: EGFR exon 20 inserted N771insH cell proliferation test. The following applies: N771insH, D770insNPG, V774insHV (tests 16-18), in words. The format is cell-based.

Assay [6] concerns the target T4, BaF3 (EGFR/N771insH) (Homo sapiens, UniProt P00533, cells depend on it, form not given).
T4 construct: Test 16 IC50 (nM); other: BaF3 (EGFR/N771insH), 72 hours, Cell Titer-Glo
Described as above. The format is cell-based. To be noted: BaF3 (EGFR/N771insH), 72 hours, Cell Titer-Glo; read-out: Test 16 IC50.

In assay [7] the target is BaF3 (EGFR/D770insNPG) (Homo sapiens, UniProt P00533, cells depend on it, form not given). The assay can be described thus: Test 17: EGFR exon 20 inserted D770insNPG cell proliferation test. The following applies: 72 hours, Cell Titer-Glo, read-out: Test 17 IC50. The format is cell-based. On the procedure: Test 17: EGFR Exon 20 Inserted D770insNPG Cell Proliferation Test
(§2) The number of viable cells in the culture was measured according to the protocol described in Promega's Cell Titer-Glo Luminescent cell Viability Assay (Promega catalog number #G7570). 90 μl of cells (3,000 cells/well) were cultured in growth medium in a Corning black transparent bottom 96-well plate, and cultured in a 5% CO2 humidified incubator at 37° C. overnight. The compound serially diluted in 100% DMSO was added to the cells using a pipette, and the cells were incubated for another 72 hours. 100 μl of the mixed Cell Titer-Glo reagent was added to the cells in the 96-well culture plate to lyse the cells and mix gently. Subsequently, the […] was detected on the Envision microplate detector to obtain the data of each compound. Finally, the data was input into a suitable software package (such as Prism) for curve fitting analysis.

Assay [8] deals with BaF3 (EGFR/V774insHV) (Homo sapiens, UniProt P00533, cells depend on it, form not given). Kind of assay: Test 18: EGFR exon 20 inserted V774insHV cell proliferation test. The format is cell-based. To be noted: 72 hours, Cell Titer-Glo, read-out: Test 18 IC50. How it is done: as §2
Assay [9] addresses T5, BaF3 (EGFR/S768I) (Homo sapiens, UniProt P00533, cells depend on it, form not given).
T5 construct: other: BaF3 (EGFR/S768I), 72 hours, Cell Titer-Glo
Kind of assay: Test 19: EGFR/S768I mutant cell line proliferation test. The following applies: BaF3 (EGFR/S768I), 72 hours, Cell Titer-Glo; read-out: Test 19 IC50. The format is cell-based. On the procedure: (§3) Test 19: EGFR/S768I Mutant Cell Line Proliferation Test
as §2

For assay [10], the target named is T6, BaF3 (EGFR/S768I) (Homo sapiens, UniProt P00533, cells depend on it, form not given).
T6 construct: other: EGFR S768I and EGFR L8
The description is as above. The format is cell-based. To be noted: EGFR S768I and EGFR L861Q (tests 19-20), in words. How it is done:
as §3, §2

Assay [11] addresses BaF3 (EGFR/L861Q) (Homo sapiens, UniProt P00533, cells depend on it, form not given). Kind of assay: Test 20: EGFR/L861Q mutant cell line proliferation test. It counts as cell-based. The following applies: 72 hours, Cell Titer-Glo, read-out: Test 20 IC50. How it is done:
as §2, with “The compound serially diluted in 100% DMSO was added to the cells using a pipette, and the cells were incubated for another 72 hours.” left out

In assay [12] the target is T7, BaF3 (HER2/A775insYVMA) (Homo sapiens, UniProt P04626, cells depend on it, form not given).
T7 construct: other: BaF3 (HER2/A775insYVMA), 72 hours, Cell Titer-Glo
Kind of assay: Test 21: HER2 exon 20 inserted A775insYVMA cell proliferation test. It counts as cell-based. To be noted: BaF3 (HER2/A775insYVMA), 72 hours, Cell Titer-Glo; read-out: test 21 IC50. How it is done: Test 21: HER2 Exon 20 Inserted A775insYVMA Cell Proliferation Test
as §2

The target in assay [13] is BaF3 (HER2/P780insGSP) (Homo sapiens, UniProt P04626, cells depend on it, form not given). The assay can be described thus: Test 22: HER2 exon 20 inserted P780insGSP cell proliferation test. It counts as cell-based. To be noted: 72 hours, Cell Titer-Glo, read-out: test 22 IC50. On the procedure:
Test 22: HER2 Exon 20 Inserted P780insGSP Cell Proliferation Test
The engineered cell line BaF3 (HER2/P780insGSP) was constructed by the inventor himself (for the method of cell line construction, see Jingrui Jiang et al., Cancer Res. 2005 Oct. 1; 65 (19): 8964-74; Jacqulyne P. Robichaux et al., Nat Med. 2018 May; 24 (5): 638-646). BaF3 (HER2/P780insGSP) was cultured in RPMI 1640 medium containing 10% fetal bovine serum and 2 mM glutamine, and the cells were grown at 37° C. in a humidified incubator with 5% CO2.
as §2

In assay [14] the target is BaF3 (HER2/G776insVC) (Homo sapiens, UniProt P04626, cells depend on it, form not given). Kind of assay: Test 23: HER2 exon 20 inserted G776insVC cell proliferation test. It counts as cell-based. The following applies: 72 hours, Cell Titer-Glo, read-out: test 23 IC50. How it is done: Test 23: HER2 Exon 20 Inserted G776insVC Cell Proliferation Test
as §2

Assay [15] concerns the target T8, HER4 kinase (Homo sapiens, UniProt Q15303).
T8 construct: made in house
The assay can be described thus: Test 24: HER4 kinase inhibition test. The format is biochemical. On the procedure:
Test 24: HER4 Kinase Inhibition Test
Next, 100% DMSO was used to formulate the test compound into a solution of 50× at the final test concentration, and then sequentially diluted to 10 test concentrations; 100 μL of 100% DMSO was added to the blank control well as a negative control group without the compound and kinase. […] Finally, 10 μL of 2.5× peptide solution was added to the 384-well plate. After incubating at 25° C. for 10 minutes, 25 μL of reaction stop solution was added. Finally, the absorbance was detected on the Envision microplate detector to obtain the data of each compound. Finally, the data was input into a suitable software package (such as Prism) for curve fitting analysis.

Each structure is given as a SMILES string.

Usually IC50 stands for the concentration that gives 50% inhibition.

T8 sequence (Q15303 26-1308): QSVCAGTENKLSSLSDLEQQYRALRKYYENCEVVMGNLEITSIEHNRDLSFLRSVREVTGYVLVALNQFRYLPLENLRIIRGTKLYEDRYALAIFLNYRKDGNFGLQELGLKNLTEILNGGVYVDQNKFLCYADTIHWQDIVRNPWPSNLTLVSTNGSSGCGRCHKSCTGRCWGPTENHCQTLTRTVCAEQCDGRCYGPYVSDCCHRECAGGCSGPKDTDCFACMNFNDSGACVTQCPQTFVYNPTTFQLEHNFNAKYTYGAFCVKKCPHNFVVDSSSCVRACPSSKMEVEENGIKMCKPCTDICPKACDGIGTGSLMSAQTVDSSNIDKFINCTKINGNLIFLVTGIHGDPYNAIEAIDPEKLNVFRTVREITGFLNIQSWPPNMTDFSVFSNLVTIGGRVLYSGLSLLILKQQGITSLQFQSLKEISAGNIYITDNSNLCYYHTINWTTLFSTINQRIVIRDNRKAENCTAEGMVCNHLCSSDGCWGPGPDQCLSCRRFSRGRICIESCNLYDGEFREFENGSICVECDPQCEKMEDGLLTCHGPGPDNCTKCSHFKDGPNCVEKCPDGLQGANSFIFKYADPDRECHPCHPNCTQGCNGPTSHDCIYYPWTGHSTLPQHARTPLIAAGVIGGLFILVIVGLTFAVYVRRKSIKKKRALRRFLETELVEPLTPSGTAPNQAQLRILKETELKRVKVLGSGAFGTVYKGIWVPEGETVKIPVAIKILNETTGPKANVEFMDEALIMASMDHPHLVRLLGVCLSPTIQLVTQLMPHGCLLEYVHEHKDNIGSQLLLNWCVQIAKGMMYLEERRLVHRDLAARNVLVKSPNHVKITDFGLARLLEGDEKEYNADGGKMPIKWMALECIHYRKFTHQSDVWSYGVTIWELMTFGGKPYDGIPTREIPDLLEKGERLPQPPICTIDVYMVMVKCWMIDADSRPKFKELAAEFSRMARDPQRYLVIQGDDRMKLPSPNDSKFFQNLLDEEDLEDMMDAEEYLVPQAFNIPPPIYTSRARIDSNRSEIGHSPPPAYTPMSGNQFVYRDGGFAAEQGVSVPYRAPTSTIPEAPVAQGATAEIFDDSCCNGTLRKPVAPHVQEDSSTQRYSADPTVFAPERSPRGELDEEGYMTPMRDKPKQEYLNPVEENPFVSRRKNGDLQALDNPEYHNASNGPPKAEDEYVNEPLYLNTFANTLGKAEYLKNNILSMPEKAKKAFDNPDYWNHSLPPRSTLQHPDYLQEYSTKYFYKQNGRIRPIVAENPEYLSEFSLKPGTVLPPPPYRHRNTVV
BaF3 (HER2/G776insVC), sequence (P04626 with tags, fused parts or gaps DUP772-775): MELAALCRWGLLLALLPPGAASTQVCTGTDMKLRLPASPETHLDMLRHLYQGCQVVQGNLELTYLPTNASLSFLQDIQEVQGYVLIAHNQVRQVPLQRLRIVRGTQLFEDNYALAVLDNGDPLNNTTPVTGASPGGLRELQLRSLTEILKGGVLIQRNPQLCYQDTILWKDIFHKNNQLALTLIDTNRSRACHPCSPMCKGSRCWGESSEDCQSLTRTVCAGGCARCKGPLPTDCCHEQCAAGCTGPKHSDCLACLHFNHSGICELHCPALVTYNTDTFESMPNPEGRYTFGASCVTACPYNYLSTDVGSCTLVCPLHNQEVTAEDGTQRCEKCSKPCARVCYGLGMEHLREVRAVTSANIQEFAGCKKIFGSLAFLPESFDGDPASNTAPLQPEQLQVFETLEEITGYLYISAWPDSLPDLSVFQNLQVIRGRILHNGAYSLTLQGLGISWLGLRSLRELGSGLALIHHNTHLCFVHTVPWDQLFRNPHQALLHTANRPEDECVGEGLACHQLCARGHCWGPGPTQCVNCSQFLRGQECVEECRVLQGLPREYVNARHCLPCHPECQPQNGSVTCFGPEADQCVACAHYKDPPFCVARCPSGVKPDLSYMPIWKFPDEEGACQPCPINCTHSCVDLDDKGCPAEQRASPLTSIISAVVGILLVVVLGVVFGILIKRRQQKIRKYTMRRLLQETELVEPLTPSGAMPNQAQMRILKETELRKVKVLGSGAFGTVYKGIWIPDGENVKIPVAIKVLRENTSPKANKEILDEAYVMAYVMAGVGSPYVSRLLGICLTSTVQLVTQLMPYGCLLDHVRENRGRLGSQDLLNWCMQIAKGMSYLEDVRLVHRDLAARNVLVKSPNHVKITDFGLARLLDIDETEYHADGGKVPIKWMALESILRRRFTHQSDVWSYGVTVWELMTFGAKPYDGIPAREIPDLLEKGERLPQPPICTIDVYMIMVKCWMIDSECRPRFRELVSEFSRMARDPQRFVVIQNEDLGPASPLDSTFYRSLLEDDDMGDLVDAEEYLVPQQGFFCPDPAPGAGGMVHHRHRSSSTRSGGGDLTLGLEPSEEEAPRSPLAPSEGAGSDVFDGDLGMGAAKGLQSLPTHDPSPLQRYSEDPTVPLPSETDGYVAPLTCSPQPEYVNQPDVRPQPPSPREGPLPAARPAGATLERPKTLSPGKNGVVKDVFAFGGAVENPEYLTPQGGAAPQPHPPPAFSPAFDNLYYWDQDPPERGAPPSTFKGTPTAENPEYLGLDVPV
T7 sequence (P04626 with tags, fused parts or gaps DUP778-780): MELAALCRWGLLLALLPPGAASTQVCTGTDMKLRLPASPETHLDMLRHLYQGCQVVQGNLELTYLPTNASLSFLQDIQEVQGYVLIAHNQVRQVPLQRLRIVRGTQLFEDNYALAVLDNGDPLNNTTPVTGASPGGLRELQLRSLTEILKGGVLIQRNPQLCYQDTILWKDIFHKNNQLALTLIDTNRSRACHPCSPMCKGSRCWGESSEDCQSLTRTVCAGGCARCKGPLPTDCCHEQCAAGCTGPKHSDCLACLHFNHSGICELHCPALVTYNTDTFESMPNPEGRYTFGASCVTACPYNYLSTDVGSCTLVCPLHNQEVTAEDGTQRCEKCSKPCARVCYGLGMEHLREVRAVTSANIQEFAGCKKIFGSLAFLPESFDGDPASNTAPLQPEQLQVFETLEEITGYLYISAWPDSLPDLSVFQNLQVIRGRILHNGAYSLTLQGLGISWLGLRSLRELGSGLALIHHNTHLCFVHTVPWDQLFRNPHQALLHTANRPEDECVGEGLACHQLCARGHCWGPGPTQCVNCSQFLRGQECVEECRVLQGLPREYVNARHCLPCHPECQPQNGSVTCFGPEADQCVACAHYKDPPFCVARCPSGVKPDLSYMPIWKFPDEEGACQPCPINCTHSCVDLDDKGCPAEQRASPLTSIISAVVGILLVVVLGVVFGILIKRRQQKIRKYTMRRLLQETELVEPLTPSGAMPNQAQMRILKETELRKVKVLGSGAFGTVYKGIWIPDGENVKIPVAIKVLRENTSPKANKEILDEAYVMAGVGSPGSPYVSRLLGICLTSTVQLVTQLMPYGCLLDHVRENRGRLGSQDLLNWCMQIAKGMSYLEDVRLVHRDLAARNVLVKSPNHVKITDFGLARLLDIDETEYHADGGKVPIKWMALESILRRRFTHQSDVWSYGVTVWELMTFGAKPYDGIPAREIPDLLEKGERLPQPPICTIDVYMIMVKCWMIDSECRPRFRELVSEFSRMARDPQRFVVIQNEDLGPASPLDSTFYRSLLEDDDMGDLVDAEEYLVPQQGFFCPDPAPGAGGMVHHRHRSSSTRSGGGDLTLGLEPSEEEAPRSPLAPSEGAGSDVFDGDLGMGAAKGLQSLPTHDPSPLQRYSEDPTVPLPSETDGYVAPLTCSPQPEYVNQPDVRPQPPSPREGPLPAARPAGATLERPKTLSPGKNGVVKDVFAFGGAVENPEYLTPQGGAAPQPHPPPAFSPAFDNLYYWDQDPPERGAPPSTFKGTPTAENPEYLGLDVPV
BaF3 (HER2/P780insGSP), sequence (P04626 with tags, fused parts or gaps DELINS776-776VC): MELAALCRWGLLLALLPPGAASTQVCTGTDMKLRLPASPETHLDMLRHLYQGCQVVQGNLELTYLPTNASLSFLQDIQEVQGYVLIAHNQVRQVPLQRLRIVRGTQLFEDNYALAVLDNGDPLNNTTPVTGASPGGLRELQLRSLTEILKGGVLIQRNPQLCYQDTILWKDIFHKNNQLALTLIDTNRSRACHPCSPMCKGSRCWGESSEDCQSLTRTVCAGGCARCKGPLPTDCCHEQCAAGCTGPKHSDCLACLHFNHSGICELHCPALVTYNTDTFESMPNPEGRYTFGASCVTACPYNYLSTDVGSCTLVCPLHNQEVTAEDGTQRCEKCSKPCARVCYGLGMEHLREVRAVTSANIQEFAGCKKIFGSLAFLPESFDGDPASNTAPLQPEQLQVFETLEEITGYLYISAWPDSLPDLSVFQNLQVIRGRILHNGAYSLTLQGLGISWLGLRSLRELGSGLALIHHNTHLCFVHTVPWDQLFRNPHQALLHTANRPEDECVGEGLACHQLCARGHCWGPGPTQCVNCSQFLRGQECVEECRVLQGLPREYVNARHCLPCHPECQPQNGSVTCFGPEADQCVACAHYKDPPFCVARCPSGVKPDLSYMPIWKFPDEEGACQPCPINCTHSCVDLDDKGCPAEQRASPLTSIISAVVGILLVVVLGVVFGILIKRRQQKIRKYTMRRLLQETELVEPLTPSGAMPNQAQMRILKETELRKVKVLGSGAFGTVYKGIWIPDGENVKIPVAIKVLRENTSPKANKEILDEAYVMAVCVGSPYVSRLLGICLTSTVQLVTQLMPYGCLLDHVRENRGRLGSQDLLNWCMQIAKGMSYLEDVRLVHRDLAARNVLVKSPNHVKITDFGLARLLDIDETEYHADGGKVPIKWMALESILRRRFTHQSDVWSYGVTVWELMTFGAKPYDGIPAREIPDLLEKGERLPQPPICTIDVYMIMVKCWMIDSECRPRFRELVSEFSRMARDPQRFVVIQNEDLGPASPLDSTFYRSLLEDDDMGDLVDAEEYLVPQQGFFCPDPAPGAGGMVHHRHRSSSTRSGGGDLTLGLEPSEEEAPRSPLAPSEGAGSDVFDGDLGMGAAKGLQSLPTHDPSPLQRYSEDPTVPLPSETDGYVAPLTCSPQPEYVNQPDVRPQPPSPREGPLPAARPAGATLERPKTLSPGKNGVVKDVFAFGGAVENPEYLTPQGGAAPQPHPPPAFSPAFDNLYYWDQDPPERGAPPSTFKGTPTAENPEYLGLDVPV

For `C=CC(=O)Nc1cc(Nc2ncnc(-c3cn(C)c4ccccc34)n2)c(OC)cc1N(C)CCN(C)C` [Compound 16], the “cell activity compared with Osimertinib (AZD9291) against EGFR exon 20 insertion mutations” value in assay [1] is “significant superior cell activity over Osimertinib (AZD9291)”; in assay [5] it was “significantly superior cell activity over Osimertinib (AZD9291)”. Also, the GI50 in [2] came out at 35.8 nM; in assay [3] it was 12.8 nM; in assay [4], 24.8 nM; in assay [6] it was 8.67 nM; in [7], 4.69 nM; in assay [8], 7.59 nM. In addition, the GI50 in [9] turned out to be 8.63 nM; in [11] it was 21.6 nM; in assay [12] it was 7.67 nM; in [13], 1.64 nM; in [14] it was 12 nM. In assay [10], the “activity compared with Osimertinib (AZD9291) against EGFR S768I and EGFR L861Q mutations” value is “superior activity over Osimertinib (AZD9291)”. Moreover, in assay [15] (HER4 kinase), the “IC50 value lower than that of Osimertinib (AZD9291)” value is “about 1 fold”. Moreover, in [15] (HER4 kinase inhibition test, read-out: Test 12 HER4 IC50), the IC50 stood at 29 nM.

The values are drawn from US12258344B2, “Azaaromatic amide derivatives for the treatment of cancer” (SHENZHEN FORWARD PHARMACEUTICALS CO., LTD., priority 2019, dated 2025).
